# Test results taken from patent US20100298141A1, “SUBSTITUTED PYRIDINE N-OXIDE HERBICIDES” (E. I. DU PONT DE NEMOURS AND COMPANY, priority 2007, published 2010).
# Tests used:
# wheat = test: Test A pre-/postemergence greenhouse test; assay type: in vivo, Triticum aestivum; conditions: for Plant response rating, Wheat: 0 to 100 scale where 0 is no effect and 100 is complete control; for Wheat plant response rating: 0 to 100 scale
# Procedure, shortened: (§1)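 Test compounds in non-phytotoxic solvent with surfactant were applied as a preemergence soil spray to seeded loam/sand pots and, concurrently, postemergence to plants at 2–10 cm, one- to two-leaf stage. About ten days in greenhouse, then injury visually rated against untreated controls.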
# barnyardgrass [1] = test: Test A pre-/postemergence greenhouse test; assay type: in vivo, Echinochloa crus-galli; conditions: for Plant response rating, Barnyardgrass: 0 to 100 scale where 0 is no effect and 100 is complete control; for Barnyardgrass plant response rating: 0 to 100 scale
# Procedure, shortened: as §1
# duck salad = test: Test C flooded paddy test; assay type: in vivo, Heteranthera limosa; conditions: Flood, scale 0 to 100, 0 no effect, 100 complete control, 13 to 15 days
# Procedure, shortened: (§2)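 Flooded 3 cm over soil; compound into paddy water; depth kept constant. Greenhouse 13–15 d.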
# velvetleaf = test: Test A pre-/postemergence greenhouse test; assay type: in vivo, Abutilon theophrasti; conditions: for Plant response rating, Velvetleaf: 0 to 100 scale where 0 is no effect and 100 is complete control; for Velvetleaf plant response rating: 0 to 100 scale
# Procedure, shortened: as §1
# crabgrass = test: Test A pre-/postemergence greenhouse test; assay type: in vivo, Digitaria sanguinalis; conditions: for Plant response rating, Crabgrass, Large: 0 to 100 scale where 0 is no effect and 100 is complete control; for Crabgrass, Large plant response rating: 0 to 100 scale
# Procedure, shortened: as §1
# morningglory = test: Test A pre-/postemergence greenhouse test; assay type: in vivo, Ipomoea spp.; conditions: for Plant response rating, Morningglory: 0 to 100 scale where 0 is no effect and 100 is complete control; for Morningglory plant response rating: 0 to 100 scale
# Procedure, shortened: as §1
# rice = test: Test C flooded paddy test; assay type: in vivo, Oryza sativa; conditions: Flood, scale 0 to 100, 0 no effect, 100 complete control, 13 to 15 days
# Procedure, shortened: as §2
# barnyardgrass [2] = test: Test C flooded paddy test; assay type: in vivo, Echinochloa crus-galli; conditions: Flood, scale 0 to 100, 0 no effect, 100 complete control, 13 to 15 days
# Procedure, shortened: as §2
# redroot pigweed = test: Test A pre-/postemergence greenhouse test; assay type: in vivo, Amaranthus retroflexus; conditions: for Plant response rating, Pigweed: 0 to 100 scale where 0 is no effect and 100 is complete control; for Pigweed plant response rating: 0 to 100 scale
# Procedure, shortened: as §1
# corn = test: Test A pre-/postemergence greenhouse test; assay type: in vivo, Zea mays; conditions: for Plant response rating, Corn: 0 to 100 scale where 0 is no effect and 100 is complete control; for Corn plant response rating: 0 to 100 scale
# Procedure, shortened: as §1
# giant foxtail = test: Test A pre-/postemergence greenhouse test; assay type: in vivo, Setaria faberi; conditions: for Plant response rating, Foxtail, Giant: 0 to 100 scale where 0 is no effect and 100 is complete control; for Foxtail, Giant plant response rating: 0 to 100 scale
# Procedure, shortened: as §1
# umbrella sedge = test: Test C flooded paddy test; assay type: in vivo, Cyperus difformis; conditions: Flood, scale 0 to 100, 0 no effect, 100 complete control, 13 to 15 days
# Procedure, shortened: as §2
# [3] = Postemergence, 500 g ai/ha, 0 is no effect, 100 is complete control
# [4] = Preemergence, 125 g ai/ha, 0 no effect, 100 complete control
Compound,"Plant response rating, Wheat (wheat; Postemergence, 125 g ai/ha)",Wheat plant response rating (wheat; [3]),Wheat plant response rating (wheat; [4]),"Plant response rating, Wheat (wheat; Preemergence, 500 g ai/ha)","Plant response rating, Barnyardgrass (barnyardgrass [1]; Postemergence, 125 g ai/ha)",Barnyardgrass plant response rating (barnyardgrass [1]; [3]),Barnyardgrass plant response rating (barnyardgrass [1]; [4]),"Plant response rating, Barnyardgrass (barnyardgrass [1]; Preemergence, 500 g ai/ha)","Plant response rating, Ducksalad (duck salad; 62 g ai/ha)","Plant response rating, Ducksalad (duck salad; 250 g ai/ha)","Plant response rating, Velvetleaf (velvetleaf; Postemergence, 125 g ai/ha)",Velvetleaf plant response rating (velvetleaf; [3]),Velvetleaf plant response rating (velvetleaf; [4]),"Plant response rating, Velvetleaf (velvetleaf; Preemergence, 500 g ai/ha)","Plant response rating, Crabgrass, Large (crabgrass; Postemergence, 125 g ai/ha)","Crabgrass, Large plant response rating (crabgrass; [3])","Crabgrass, Large plant response rating (crabgrass; [4])","Plant response rating, Crabgrass, Large (crabgrass; Preemergence, 500 g ai/ha)","Plant response rating, Morningglory (morningglory; Postemergence, 125 g ai/ha)",Morningglory plant response rating (morningglory; [3]),also measured
[O-][n+]1ccccc1[S+]([O-])Cc1c(C(F)(F)F)nn(CC(F)(F)F)c1Cl (stereo not shown) [Compound 43],40,60,40,70,50,80,70,90,0,60,20,60,30,50,70,80,70,90,30,80,"Morningglory plant response rating (morningglory; [4]): 0; Plant response rating, Morningglory (morningglory; Preemergence, 500 g ai/ha): 80; Plant response rating, Rice (rice; 62 g ai/ha): 0; Plant response rating, Rice (rice; 250 g ai/ha): 30; Plant response rating, Barnyardgrass (barnyardgrass [2]; 62 g ai/ha): 0; Plant response rating, Barnyardgrass (barnyardgrass [2]; 250 g ai/ha): 60; Plant response rating, Pigweed (redroot pigweed; Postemergence, 125 g ai/ha): 30; Pigweed plant response rating (redroot pigweed; [3]): 60; Pigweed plant response rating (redroot pigweed; [4]): 0; Plant response rating, Pigweed (redroot pigweed; Preemergence, 500 g ai/ha): 90; Plant response rating, Corn (corn; Postemergence, 125 g ai/ha): 30; Corn plant response rating (corn; [3]): 50; Corn plant response rating (corn; [4]): 0; Plant response rating, Corn (corn; Preemergence, 500 g ai/ha): 50; Plant response rating, Foxtail, Giant (giant foxtail; Postemergence, 125 g ai/ha): 70; Foxtail, Giant plant response rating (giant foxtail; [3]): 90; Foxtail, Giant plant response rating (giant foxtail; [4]): 80; Plant response rating, Foxtail, Giant (giant foxtail; Preemergence, 500 g ai/ha): 90; Plant response rating, Sedge, Umbrella (umbrella sedge; 62 g ai/ha): 30; Plant response rating, Sedge, Umbrella (umbrella sedge; 250 g ai/ha): 70"
O=S(=O)(Cc1c(C(F)(F)F)nn(CC(F)(F)F)c1Cl)c1cccc[n+]1[O-] [Compound 44],0,0,0,20,70,80,70,90,0,40,0,30,0,30,70,80,60,100,10,40,"Morningglory plant response rating (morningglory; [4]): 0; Plant response rating, Morningglory (morningglory; Preemergence, 500 g ai/ha): 60; Plant response rating, Rice (rice; 62 g ai/ha): 0; Plant response rating, Rice (rice; 250 g ai/ha): 30; Plant response rating, Barnyardgrass (barnyardgrass [2]; 62 g ai/ha): 0; Plant response rating, Barnyardgrass (barnyardgrass [2]; 250 g ai/ha): 0; Plant response rating, Pigweed (redroot pigweed; Postemergence, 125 g ai/ha): 0; Pigweed plant response rating (redroot pigweed; [3]): 10; Pigweed plant response rating (redroot pigweed; [4]): 0; Plant response rating, Pigweed (redroot pigweed; Preemergence, 500 g ai/ha): 100; Plant response rating, Corn (corn; Postemergence, 125 g ai/ha): 0; Corn plant response rating (corn; [3]): 0; Corn plant response rating (corn; [4]): 0; Plant response rating, Corn (corn; Preemergence, 500 g ai/ha): 0; Plant response rating, Foxtail, Giant (giant foxtail; Postemergence, 125 g ai/ha): 70; Foxtail, Giant plant response rating (giant foxtail; [3]): 80; Foxtail, Giant plant response rating (giant foxtail; [4]): 90; Plant response rating, Foxtail, Giant (giant foxtail; Preemergence, 500 g ai/ha): 100; Plant response rating, Sedge, Umbrella (umbrella sedge; 250 g ai/ha): 50"
[O-][n+]1ccccc1[S+]([O-])C(Cl)c1c(C(F)(F)F)nn(CC(F)(F)F)c1Cl (stereo not shown) [Compound 45],0,0,0,30,40,70,0,100,40,75,30,40,0,50,60,80,60,80,0,40,"Morningglory plant response rating (morningglory; [4]): 50; Plant response rating, Morningglory (morningglory; Preemergence, 500 g ai/ha): 60; Plant response rating, Rice (rice; 62 g ai/ha): 0; Plant response rating, Rice (rice; 250 g ai/ha): 25; Plant response rating, Barnyardgrass (barnyardgrass [2]; 62 g ai/ha): 0; Plant response rating, Barnyardgrass (barnyardgrass [2]; 250 g ai/ha): 20; Plant response rating, Pigweed (redroot pigweed; Postemergence, 125 g ai/ha): 40; Pigweed plant response rating (redroot pigweed; [3]): 60; Pigweed plant response rating (redroot pigweed; [4]): 50; Plant response rating, Pigweed (redroot pigweed; Preemergence, 500 g ai/ha): 100; Plant response rating, Corn (corn; Postemergence, 125 g ai/ha): 0; Corn plant response rating (corn; [3]): 0; Corn plant response rating (corn; [4]): 0; Plant response rating, Corn (corn; Preemergence, 500 g ai/ha): 0; Plant response rating, Foxtail, Giant (giant foxtail; Postemergence, 125 g ai/ha): 50; Foxtail, Giant plant response rating (giant foxtail; [3]): 80; Foxtail, Giant plant response rating (giant foxtail; [4]): 70; Plant response rating, Foxtail, Giant (giant foxtail; Preemergence, 500 g ai/ha): 100; Plant response rating, Sedge, Umbrella (umbrella sedge; 250 g ai/ha): 80"
Cc1cc[n+]([O-])c([S+]([O-])Cc2c(C(F)(F)F)nn(CC(F)(F)F)c2Cl)c1 (stereo not shown) [Compound 48],0,50,20,80,40,70,50,90,0,25,0,40,0,60,50,70,70,90,30,50,"Morningglory plant response rating (morningglory; [4]): 40; Plant response rating, Morningglory (morningglory; Preemergence, 500 g ai/ha): 80; Plant response rating, Rice (rice; 62 g ai/ha): 0; Plant response rating, Rice (rice; 250 g ai/ha): 25; Plant response rating, Barnyardgrass (barnyardgrass [2]; 62 g ai/ha): 0; Plant response rating, Barnyardgrass (barnyardgrass [2]; 250 g ai/ha): 0; Plant response rating, Pigweed (redroot pigweed; Postemergence, 125 g ai/ha): 50; Pigweed plant response rating (redroot pigweed; [3]): 60; Pigweed plant response rating (redroot pigweed; [4]): 70; Plant response rating, Pigweed (redroot pigweed; Preemergence, 500 g ai/ha): 100; Plant response rating, Corn (corn; Postemergence, 125 g ai/ha): 0; Corn plant response rating (corn; [3]): 50; Corn plant response rating (corn; [4]): 0; Plant response rating, Corn (corn; Preemergence, 500 g ai/ha): 60; Plant response rating, Foxtail, Giant (giant foxtail; Postemergence, 125 g ai/ha): 70; Foxtail, Giant plant response rating (giant foxtail; [3]): 80; Foxtail, Giant plant response rating (giant foxtail; [4]): 80; Plant response rating, Foxtail, Giant (giant foxtail; Preemergence, 500 g ai/ha): 90; Plant response rating, Sedge, Umbrella (umbrella sedge; 250 g ai/ha): 50"
